Measured values reported in ChEMBL document CHEMBL1137709, “Enhanced activity of fluorinated quaternary ammonium surfactants against Pseudomonas aeruginosa” (Eur J Med Chem, 2009).

Assays:
[1] = test system: Pseudomonas aeruginosa; experiment: Antibacterial activity against Pseudomonas aeruginosa CIP A22 after 24 hrs; type: functional; settings: CIP A22, 24 h
[2] = Critical micelle concentration in aqueous potassium hydroxide assessed as breakpoint of conductivity by conductimeter; type: physicochemical; settings: buffer

Structure (SMILES)	MIC [1]	CMC [2]	solubility [2]
C[N+](C)(CCCCCC[N+](C)(C)CC(=O)NCCC(F)(F)C(F)(F)C(F)(F)C(F)(F)C(F)(F)C(F)(F)F)CC(=O)NCCC(F)(F)C(F)(F)C(F)(F)C(F)(F)C(F)(F)C(F)(F)F.[Br-].[Br-]	5.52 µM	0.588 mM	
C[N+](C)(CCCCCCCCCCCC[N+](C)(C)CC(=O)NCCC(F)(F)C(F)(F)C(F)(F)C(F)(F)C(F)(F)C(F)(F)F)CC(=O)NCCC(F)(F)C(F)(F)C(F)(F)C(F)(F)C(F)(F)C(F)(F)F.[Br-].[Br-]	2.76 µM	0.269 mM	
C[N+](C)(CCC[N+](C)(C)CC(=O)NCCC(F)(F)C(F)(F)C(F)(F)C(F)(F)C(F)(F)C(F)(F)F)CC(=O)NCCC(F)(F)C(F)(F)C(F)(F)C(F)(F)C(F)(F)C(F)(F)F.[Br-].[Br-]	5.19 µM	0.546 mM	
C[N+](C)(CCCCCCCCCC[N+](C)(C)CC(=O)NCCC(F)(F)C(F)(F)C(F)(F)C(F)(F)C(F)(F)C(F)(F)F)CC(=O)NCCC(F)(F)C(F)(F)C(F)(F)C(F)(F)C(F)(F)C(F)(F)F.[Br-].[Br-]	2.83 µM	0.296 mM	
C[N+](C)(CCCC[N+](C)(C)CCOC(=O)NCCC(F)(F)C(F)(F)C(F)(F)C(F)(F)C(F)(F)C(F)(F)F)CCOC(=O)NCCC(F)(F)C(F)(F)C(F)(F)C(F)(F)C(F)(F)C(F)(F)F.[Br-].[Br-]	3.69 µM	0.54 mM	
C[N+](C)(CC[N+](C)(C)CC(=O)NCCC(F)(F)C(F)(F)C(F)(F)C(F)(F)C(F)(F)C(F)(F)F)CC(=O)NCCC(F)(F)C(F)(F)C(F)(F)C(F)(F)C(F)(F)C(F)(F)F.[Br-].[Br-]	5.8 µM	0.591 mM	
C[N+](C)(CCCC[N+](C)(C)CSCCC(F)(F)C(F)(F)C(F)(F)C(F)(F)C(F)(F)C(F)(F)F)CSCCC(F)(F)C(F)(F)C(F)(F)C(F)(F)C(F)(F)C(F)(F)F.[Br-].[Br-]	4.59 µM		Insoluble
C[N+](C)(CCCCCCCC[N+](C)(C)CC(=O)NCCC(F)(F)C(F)(F)C(F)(F)C(F)(F)C(F)(F)C(F)(F)F)CC(=O)NCCC(F)(F)C(F)(F)C(F)(F)C(F)(F)C(F)(F)C(F)(F)F.[Br-].[Br-]	2.89 µM	0.361 mM	
C[N+](C)(CCCC[N+](C)(C)CCC(F)(F)C(F)(F)C(F)(F)C(F)(F)C(F)(F)C(F)(F)F)CCC(F)(F)C(F)(F)C(F)(F)C(F)(F)C(F)(F)C(F)(F)F.[Br-].[Br-]	7.31 µM	2.39 mM	
O=C(C[N+]12CC[N+](CC(=O)NCCC(F)(F)C(F)(F)C(F)(F)C(F)(F)C(F)(F)C(F)(F)F)(CC1)CC2)NCCC(F)(F)C(F)(F)C(F)(F)C(F)(F)C(F)(F)C(F)(F)F.[Br-].[Br-]	5.82 µM	0.466 mM	
C[N+](C)(C/C=C/C[N+](C)(C)CC(=O)NCCC(F)(F)C(F)(F)C(F)(F)C(F)(F)C(F)(F)C(F)(F)F)CC(=O)NCCC(F)(F)C(F)(F)C(F)(F)C(F)(F)C(F)(F)C(F)(F)F.[Br-].[Br-]	3.67 µM	0.559 mM	
C[N+](C)(CCCC[N+](C)(C)CC(=O)NCCC(F)(F)C(F)(F)C(F)(F)C(F)(F)C(F)(F)C(F)(F)F)CC(=O)NCCC(F)(F)C(F)(F)C(F)(F)C(F)(F)C(F)(F)C(F)(F)F.[Br-].[Br-]	5.94 µM	0.758 mM	
C[N+](C)(CC(=O)NCCC(F)(F)C(F)(F)C(F)(F)C(F)(F)C(F)(F)C(F)(F)F)CC(O)C[N+](C)(C)CC(=O)NCCC(F)(F)C(F)(F)C(F)(F)C(F)(F)C(F)(F)C(F)(F)F.[Br-].[Br-]	9.25 µM	0.541 mM	
C[N+](C)(CCCC[N+](C)(C)CCNC(=O)NCCC(F)(F)C(F)(F)C(F)(F)C(F)(F)C(F)(F)C(F)(F)F)CCNC(=O)NCCC(F)(F)C(F)(F)C(F)(F)C(F)(F)C(F)(F)C(F)(F)F.[Br-].[Br-]	5.38 µM	0.523 mM	
C[N+](C)(CCSSCC[N+](C)(C)CC(=O)NCCC(F)(F)C(F)(F)C(F)(F)C(F)(F)C(F)(F)C(F)(F)F)CC(=O)NCCC(F)(F)C(F)(F)C(F)(F)C(F)(F)C(F)(F)C(F)(F)F.[Br-].[Br-]	4.95 µM	0.451 mM	
CCCCCCCCNC(=O)C[N+](C)(C)CCCC[N+](C)(C)CC(=O)NCCCCCCCC	51.2 µM		
C[N+](C)(CCCC[N+](C)(C)CCNC(=O)CCC(F)(F)C(F)(F)C(F)(F)C(F)(F)C(F)(F)C(F)(F)F)CCNC(=O)CCC(F)(F)C(F)(F)C(F)(F)C(F)(F)C(F)(F)C(F)(F)F.[Br-].[Br-]	1.88 µM	0.547 mM	
CCCCCCCCCCCC[N+](C)(C)CCOc1ccccc1 [DOMIPHEN BROMIDE]	40.8 µM		
